Data reported in PMC5115768, “Crystal Structure and Pyridoxal 5-Phosphate Binding Property of Lysine Decarboxylase from Selenomonas ruminantium” (PLoS ONE, 2016).
Each block holds one molecule with its values, some of them ahead of it.

How the values were obtained:
[1] = biological target: Lysine decarboxylase from Selenomonas ruminantium (Selenomonas ruminantium); test: crystal structure; three crystal forms: apo I (P43212, one molecule per asymmetric unit, dimer generated by crystallographic symmetry), apo II (C2, a dimer in the asymmetric unit), PLP/cadaverine complex (P6322, one molecule per asymmetric unit); hanging-drop vapor diffusion at 20°C; protein in 40 mM Tris-HCl, pH 8.0
[2] = biological target: T1, SrLDC (lysine decarboxylase from Selenomonas ruminantium) (Pseudoselenomonas ruminantium, UniProt O50657); test: X-ray crystal structure, […] Å; type: binding; conditions: PLP-complexed crystal soaked with 10 mM L-lysine for 30 min; cadaverine observed instead; pH 4.2; active site at dimer interface
T1 construct: gene ldc; residues 1-399 as printed (count probably includes the C-terminal 6xHis; sheet domain ends at Val393); pET-22b(+), C-terminal 6xHis kept; E. coli BL21(DE3)-T1R

[3] = biological target: T1, SrLDC (lysine decarboxylase from Selenomonas ruminantium); test: isothermal titration calorimetry, independent binding model

T1 sequence (O50657 whole entry, the tested form may be a part): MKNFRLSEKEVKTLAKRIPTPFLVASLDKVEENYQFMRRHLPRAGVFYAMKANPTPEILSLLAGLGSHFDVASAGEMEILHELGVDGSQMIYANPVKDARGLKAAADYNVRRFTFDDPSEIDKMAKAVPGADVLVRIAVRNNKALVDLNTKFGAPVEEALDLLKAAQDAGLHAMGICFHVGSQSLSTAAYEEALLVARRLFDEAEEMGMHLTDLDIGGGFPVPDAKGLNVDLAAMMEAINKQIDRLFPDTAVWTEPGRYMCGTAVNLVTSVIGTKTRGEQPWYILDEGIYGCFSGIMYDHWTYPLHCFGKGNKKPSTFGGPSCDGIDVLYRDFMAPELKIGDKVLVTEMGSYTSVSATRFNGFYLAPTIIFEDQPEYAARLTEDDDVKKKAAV

- stoichiometry N [1]: 2
Molecule: Lysine decarboxylase from Selenomonas ruminantium (enzyme)

Molecule: NCCCCCN [cadaverine]
- X-ray crystal structure, 2.5 Å [2]: soaked the crystals of SrLDC complexed with PLP in L-lysine, a cadaverine molecule was observed

- Kd [3]: 72 µM
Molecule: Cc1ncc(COP(=O)(O)O)c(C=O)c1O [PLP]
